Experimental data as given in patent US20090012071A1, “4-SUBSTITUTED-1H-ISOTHIAZOLO[5,4-B][1,4]OXAZINO[2,3,4-IJ]QUINOLINE-7,8(2H,9H)-DIONES AND RELATED COMPOUNDS AS ANTI-INFECTIVE AGENTS” (priority 2007, published 2009).

Columns and labels:
[1] = tested on: MRSA S. aureus (FQR700699); assay: Minimum inhibitory concentration (MIC) assay, broth microdilution; format: cell-based; design: MIC MRSA: unit not given beside the values; conditions: for MIC MRSA: Table I
Experimental: (§1) The antimicrobial activity of the compounds of the invention may be evaluated by a number of methods, including the following visual minimum inhibitory concentration (MIC) assay. This assay determines the minimum concentration of compound required to inhibit growth of a bacterial strain.
(§2) Whole-cell antibacterial activity is determined by broth microdilution using conditions recommended by the NCCLS (see National Committee for Clinical Laboratory Standards. 2001. Performance standards for antimicrobial susceptibility testing: 11th informational supplement. Vol. 21, no. 1, M100-S11. National Committee for Clinical Laboratory Standards, Wayne, Pa.). Test compounds are dissolved in DMSO and diluted 1:50 in Mueller-Hinton II broth (Becton-Dickinson) to produce a 256 μg/ml stock solution. In a 96-well microtiter plate, the compound solution is serially two-fold diluted in Mueller-Hinton II broth. After the compounds are diluted, a 50 μl aliquot of the test organism (˜1×10^6 cfu/mL) is added to each well of the microtiter plate. The final test concentrations ranges from 0.125-128 μg/mL. Inoculated plates are incubated in ambient air at 37° C. for 18 to 24 hours. The organisms selected for testing included laboratory strains S. aureus ATCC 29213 and E. coli ATCC 25922 (strains purchased from American Type Culture Collection, Manassas, Va.), S. aureus FQR700699, and Paeruginosa 27853. The minimum inhibitory concentration (MIC) is determined as the lowest concentration of compound that inhibited visible growth of the test organism.

E. coli ATCC 25922 = assay: as above; format: cell-based
Experimental: as §1
as §2, with “The organisms selected for testing included laboratory strains S. aureus ATCC 29213 and E. coli ATCC 25922 (strains purchased from American Type Culture Collection, Manassas, Va.), S. aureus FQR700699, and Paeruginosa 27853.” left out

[2] = tested on: S. aureus ATCC 29213 (MSSA); assay: as above; format: cell-based; conditions: methicillan sufficient S. aureus
Experimental: as §1
as §2, with “The organisms selected for testing included laboratory strains S. aureus ATCC 29213 and E. coli ATCC 25922 (strains purchased from American Type Culture Collection, Manassas, Va.), S. aureus FQR700699, and Paeruginosa 27853.” left out

[3] = tested on: CHO (Chinese hamster ovary); conditions: CHO cells, positive control; cited from earlier work
[4] = tested on: Hep 2 (laryngeal carcinoma); conditions: Hep 2 cells, positive control; cited from earlier work

**Q.** Which “minimal inhibitory concentration (MIC)” value ([1]; methicillan resistant S. aureus) does the source give for C[C@H]1COc2c(N3CC[C@@H](C(C)(C)N)C3)c(F)cc3c(=O)c4c(=O)[nH]sc4n1c23 [Compound II, (S)-4-((R)-3-(2-aminopropan-2-yl)pyrrolidin-1-yl)-5-fluoro-1-methyl-1H-isothiazolo[5,4-B][1,4]oxazino[2,3,4-ij]quinoline-7,8(2H,9H)-dione] here?
**A.** 0.125

**Q.** What about the “minimal inhibitory concentration (MIC)” value (E. coli ATCC 25922) of the same molecule?
**A.** 0.062

**Q.** And the “minimal inhibitory concentration (MIC)” value [2]?
**A.** 0.016

**Q.** For CC(C)(C)c1ccc(C(O)CCCN2CCC(C(O)(c3ccccc3)c3ccccc3)CC2)cc1 (stereo not drawn) [Terfenadine], which CC50 [3] is on record?
**A.** 4.3 to 6.5 µM

**Q.** And the CC50 [4]?
**A.** 3 to 5 µM

**Q.** With C[C@H]1COc2c(N3CCN(C)CC3)c(F)cc3c(=O)c4c(=O)[nH]sc4n1c23 [compound 6, (S)-5-fluoro-1-methyl-4-(4-methylpiperazin-1-yl)-1H-isothiazolo[5,4-b][1,4]oxazino[2,3,4-ij]quinoline-7,8(2H,9H)-dione] as the molecule, how does the “MIC MRSA” value [1] read?
**A.** 4

**Q.** Which “MIC MRSA” value [1] does the source give for C[C@H]1COc2c(N3CC[C@H](N)C3)c(F)cc3c(=O)c4c(=O)[nH]sc4n1c23 [compound 7, (S)-4-((S)-3-aminopyrrolidin-1-yl)-5-fluoro-1-methyl-1H-isothiazolo[5,4-b][1,4]oxazino[2,3,4-ij]quinoline-7,8(2H,9H)-dione] here?
**A.** 1

**Q.** With C[C@H]1COc2c(N3CC[C@@H](CN)C3)c(F)cc3c(=O)c4c(=O)[nH]sc4n1c23 [compound 8, (S)-4-((S)-3-(aminomethyl)pyrrolidin-1-yl)-5-fluoro-1-methyl-1H-isothiazolo[5,4-b][1,4]oxazino[2,3,4-ij]quinoline-7,8(2H,9H)-dione] as the molecule, how does the “MIC MRSA” value [1] read?
**A.** 0.5

**Q.** With C[C@H]1COc2c(N3CCNCC3)c(F)cc3c(=O)c4c(=O)[nH]sc4n1c23 [compound 9, (S)-5-fluoro-1-methyl-4-(piperazin-1-yl)-1H-isothiazolo[5,4-b][1,4]oxazino[2,3,4-ij]quinoline-7,8(2H,9H)-dione] as the molecule, how does the “MIC MRSA” value [1] read?
**A.** 8
